Holding throughout (type): biochemical
One test deals with T1, human Yes1 enzyme (Homo sapiens, UniProt P07947).
T1 construct: made in house
Put plainly: Yes1 enzyme inhibitory activity (time-resolved fluorometry, biotinylated peptide phosphorylation). The settings on record: read-out: YES_IC50. A digest of the protocol:
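Inhibition was expressed against a compound-free control to give IC50, using TR-FRET read-out (Eu-cryptate anti-pTyr antibody, streptavidin-XL665).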

In the next test the target is T2, human Lck enzyme (Homo sapiens, UniProt P06239).
T2 construct: purchased Carna Biosciences, Inc. 08-170
T2 sequence (P06239 whole entry): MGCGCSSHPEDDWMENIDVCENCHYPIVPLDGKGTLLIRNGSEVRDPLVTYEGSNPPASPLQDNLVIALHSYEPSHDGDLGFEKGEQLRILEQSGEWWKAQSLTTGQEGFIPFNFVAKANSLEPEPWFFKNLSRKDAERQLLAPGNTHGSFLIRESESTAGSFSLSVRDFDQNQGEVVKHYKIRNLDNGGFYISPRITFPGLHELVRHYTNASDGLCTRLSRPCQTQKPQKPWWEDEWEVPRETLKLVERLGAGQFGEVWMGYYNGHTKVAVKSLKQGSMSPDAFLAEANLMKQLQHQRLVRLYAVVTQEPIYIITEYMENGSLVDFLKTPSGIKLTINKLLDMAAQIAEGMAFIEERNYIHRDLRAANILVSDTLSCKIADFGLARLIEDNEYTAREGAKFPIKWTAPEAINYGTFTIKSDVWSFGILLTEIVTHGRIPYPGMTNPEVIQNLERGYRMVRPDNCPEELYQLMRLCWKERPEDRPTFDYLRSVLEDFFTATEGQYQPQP
The experiment in a line: Lck enzyme inhibitory activity (time-resolved fluorometry, biotinylated peptide phosphorylation). The settings on record: read-out: LCK_IC50. A digest of the protocol:
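Readout pairs a europium cryptate-labelled anti-phosphotyrosine antibody with XL665-streptavidin, measured by time-resolved fluorescence. IC50 derived from percent inhibition against untreated controls.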

Another test concerns the target T3, human Src enzyme (Homo sapiens, UniProt P12931).
T3 construct: purchased Carna Biosciences, Inc. 08-173
Put plainly: Src enzyme inhibitory activity (time-resolved fluorometry, biotinylated peptide phosphorylation). The settings on record: read-out: SRC_IC50. A digest of the protocol: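 Compounds were tested for blocking tyrosine phosphorylation of a biotinylated peptide substrate by recombinant human Src. Phosphorylated product was quantified by time-resolved fluorometry using europium cryptate and XL665 conjugates, and IC50 was calculated against the compound-free control.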

[1] abbreviates: biotinylated peptide phosphorylation.

SMILES strings stand for the structures. Where two headings read alike, the source gives them in different places.

T3 sequence (P12931 whole entry): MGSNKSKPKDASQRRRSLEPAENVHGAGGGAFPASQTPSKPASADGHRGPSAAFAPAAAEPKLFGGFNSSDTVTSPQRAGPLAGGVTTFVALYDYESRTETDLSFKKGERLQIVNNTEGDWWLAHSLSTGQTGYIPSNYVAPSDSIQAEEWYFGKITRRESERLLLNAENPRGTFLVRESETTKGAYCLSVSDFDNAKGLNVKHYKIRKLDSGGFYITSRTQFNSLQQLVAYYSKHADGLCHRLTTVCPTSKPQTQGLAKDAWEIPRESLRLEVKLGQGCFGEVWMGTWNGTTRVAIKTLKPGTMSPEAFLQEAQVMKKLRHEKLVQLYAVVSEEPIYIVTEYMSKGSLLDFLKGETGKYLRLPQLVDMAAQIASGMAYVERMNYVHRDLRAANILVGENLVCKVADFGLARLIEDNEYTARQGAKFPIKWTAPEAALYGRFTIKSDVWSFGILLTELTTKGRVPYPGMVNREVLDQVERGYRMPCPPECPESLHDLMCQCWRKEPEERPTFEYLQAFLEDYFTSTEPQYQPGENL
T1 sequence (P07947 whole entry): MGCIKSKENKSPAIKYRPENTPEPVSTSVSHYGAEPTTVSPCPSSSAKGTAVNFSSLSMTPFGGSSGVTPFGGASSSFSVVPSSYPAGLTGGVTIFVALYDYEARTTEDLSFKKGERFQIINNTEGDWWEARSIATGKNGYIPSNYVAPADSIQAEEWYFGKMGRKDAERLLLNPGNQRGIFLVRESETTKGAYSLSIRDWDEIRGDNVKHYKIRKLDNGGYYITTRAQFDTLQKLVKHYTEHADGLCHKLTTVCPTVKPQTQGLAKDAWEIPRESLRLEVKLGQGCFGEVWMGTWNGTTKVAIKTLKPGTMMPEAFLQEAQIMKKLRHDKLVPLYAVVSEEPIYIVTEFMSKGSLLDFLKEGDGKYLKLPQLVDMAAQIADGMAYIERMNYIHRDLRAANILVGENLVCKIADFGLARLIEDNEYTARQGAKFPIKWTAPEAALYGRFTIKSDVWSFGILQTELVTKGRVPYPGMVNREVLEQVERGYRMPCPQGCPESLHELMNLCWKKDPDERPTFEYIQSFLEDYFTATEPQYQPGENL

As for `CS(=O)(=O)Nc1cc2[nH]c(C(=O)c3cnn(-c4c(F)cc(Oc5cccc(F)c5F)cc4F)c3N)cc2cc1F` [Example 5-1-030, N-[2-[5-amino-1-[4-(2,3-difluorophenoxy)-2,6-difluorophenyl]pyrazole-4-carbonyl]-5-fluoro-1H-indol-6-yl]methanesulfonamide], the results for the IC50 at human Yes1 enzyme, at human Lck enzyme and at human Src enzyme were 2.4 nM, 8.7 nM and 76 nM, respectively.

For the compound `Cc1cc(Oc2ccccc2F)ccc1-n1ncc(C(=O)c2cc3cc(F)c(NS(=O)(=O)CC(=O)N4CCCC4)cc3[nH]2)c1N` [Example 4-26-001, N-(2-(5-amino-1-(4-(2-fluorophenoxy)-2-methylphenyl)-1H-pyrazole-4-carbonyl)-5-fluoro-1H-indol-6-yl)-2-oxo-2-(pyrrolidin-1-yl)ethanesulfonamide], the figures for the IC50 at human Yes1 enzyme (setting [1]), at human Lck enzyme (setting [1]) and at human Src enzyme (setting [1]) were 1.5 nM, 7.6 nM and 26 nM, respectively.

Turning to `Cc1ccccc1Oc1cc(C)c(-n2ncc(C(=O)c3cc4cc(Cl)c(NS(C)(=O)=O)cc4[nH]3)c2N)cn1` [Example 4-2-090, N-[2-[5-amino-1-[4-methyl-6-(2-methylphenoxy)pyridin-3-yl]pyrazole-4-carbonyl]-5-chloro-1H-indol-6-yl]methanesulfonamide], the IC50 turned out to be 1.5 nM on human Yes1 enzyme (setting [1]), 17 nM at human Lck enzyme (setting [1]) and 110 nM on human Src enzyme (setting [1]).

In the case of `Cc1cc2cc(C(=O)c3cnn(-c4c(C)cc(Oc5ccccc5F)cc4F)c3N)[nH]c2cc1N1CCOCC1` [Example 5-1-084, [5-amino-1-[2-fluoro-4-(2-fluorophenoxy)-6-methylphenyl]pyrazol-4-yl]-(5-methyl-6-morpholin-4-yl-1H-indol-2-yl)methanone], the IC50 at human Yes1 enzyme was 4.1 nM; at human Lck enzyme it was 4.5 nM; at human Src enzyme it was 34 nM.

With `Cc1cc(Oc2ccccc2F)ccc1-n1ncc(C(=O)c2cc3cc(OCC(F)F)c(N4C(=O)[C@@H]5C[C@H](NC(=O)OCc6ccco6)CN5C4=O)cc3[nH]2)c1N` [Example 5-1-278, furan-2-ylmethyl ((6S,7aS)-2-(2-(5-amino-1-(4-(2-fluorophenoxy)-2-methylphenyl)-1H-pyrazole-4-carbonyl)-5-(2,2-difluoroethoxy)-1H-indol-6-yl)-1,3-dioxohexahydro-1H-pyrrolo[1,2-c]imidazol-6-yl)carbamate], the IC50 on human Yes1 enzyme amounted to 1.2 nM; on human Lck enzyme it was 8.7 nM; on human Src enzyme it was 23 nM.

For `Cc1cc2cc(C(=O)c3cnn(-c4ccc(Oc5ccccc5F)cc4C)c3N)[nH]c2cc1N1C(=O)CNC1=O` [Example 5-1-434, 3-[2-[5-amino-1-[4-(2-fluorophenoxy)-2-methylphenyl]pyrazole-4-carbonyl]-5-methyl-1H-indol-6-yl]imidazolidine-2,4-dione], the IC50 at human Yes1 enzyme (setting [1]) was determined as 0.44 nM; on human Lck enzyme (setting [1]), 4.1 nM; at human Src enzyme (setting [1]) it was 15 nM.

Take `Cc1cc(Oc2ccccc2F)ccc1-n1ncc(C(=O)c2cc3cc(F)c(N4C(=O)[C@@H]5C[C@H](NC(=O)OCC6c7ccccc7-c7ccccc76)CN5C4=O)cc3[nH]2)c1N` [Example 5-1-265, 9H-fluoren-9-ylmethyl N-[(6S,7aS)-2-[2-[5-amino-1-[4-(2-fluorophenoxy)-2-methylphenyl]pyrazole-4-carbonyl]-5-fluoro-1H-indol-6-yl]-1,3-dioxo-5,6,7,7a-tetrahydropyrrolo[1,2-c]imidazol-6-yl]carbamate]: the IC50 on human Yes1 enzyme is 5.4 nM; at human Lck enzyme, 38 nM; at human Src enzyme it was 440 nM.

Take `CC(C)N1CCC(c2cc3cc(C(=O)c4cnn(-c5ccc(Oc6ccccc6Cl)cc5F)c4N)[nH]c3cc2F)CC1` [Example 4-2-008, [5-amino-1-[4-(2-chlorophenoxy)-2-fluorophenyl]pyrazol-4-yl]-[6-fluoro-5-(1-propan-2-ylpiperidin-4-yl)-1H-indol-2-yl]methanone]: the values for the IC50 at human Yes1 enzyme (setting [1]), on human Lck enzyme (setting [1]) and at human Src enzyme (setting [1]) were 1.1 nM, 2.5 nM and 5.4 nM, respectively.

As to `Cc1cc(Oc2ccccc2F)ccc1-n1ncc(C(=O)c2cc3cc(OC(F)F)c(NC4CCN(S(C)(=O)=O)CC4)cc3[nH]2)c1N` [Example 4-23-010, [5-amino-1-[4-(2-fluorophenoxy)-2-methylphenyl]pyrazol-4-yl]-[5-(difluoromethoxy)-6-[(1-methylsulfonylpiperidin-4-yl)amino]-1H-indol-2-yl]methanone], the IC50 at human Yes1 enzyme (setting [1]) was 7.2 nM; on human Lck enzyme (setting [1]), 25 nM; at human Src enzyme (setting [1]), 34 nM.

Regarding `Cc1cc(Oc2ccccc2F)ccc1-n1ncc(C(=O)c2cc3cc(F)c(N4CCOC4=O)cc3[nH]2)c1N` [Example 5-1-095, 3-[2-[5-amino-1-[4-(2-fluorophenoxy)-2-methylphenyl]pyrazole-4-carbonyl]-5-fluoro-1H-indol-6-yl]-1,3-oxazolidin-2-one], the IC50 came to 0.87 nM at human Yes1 enzyme, 1.5 nM at human Lck enzyme and 4.5 nM on human Src enzyme.

In the case of `COc1ccnc(S(=O)(=O)Nc2cc3[nH]c(C(=O)c4cnn(-c5cnc(Oc6c(F)cccc6F)cc5C)c4N)cc3cc2F)c1` [Example 5-1-513, N-[2-[5-amino-1-[6-(2,6-difluorophenoxy)-4-methylpyridin-3-yl]pyrazole-4-carbonyl]-5-fluoro-1H-indol-6-yl]-4-methoxypyridine-2-sulfonamide], the IC50 at human Yes1 enzyme (setting [1]) came out at 3.7 nM; on human Lck enzyme (setting [1]), 98 nM; on human Src enzyme (setting [1]), 510 nM.

As for `Cc1cc(-n2ncc(C(=O)c3cc4cc(OCC(F)F)c(-c5cncnc5)cc4[nH]3)c2N)ccc1Oc1ccccc1F` [Example 5-1-261, [5-amino-1-[4-(2-fluorophenoxy)-3-methylphenyl]pyrazol-4-yl]-[5-(2,2-difluoroethoxy)-6-pyrimidin-5-yl-1H-indol-2-yl]methanone], the results for the IC50 at human Yes1 enzyme, on human Lck enzyme and on human Src enzyme were 7.9 nM, 200 nM and 390 nM, respectively.

As to `Cc1cc2cc(C(=O)c3cnn(-c4cnc(Oc5cccc(Cl)c5)cc4C)c3N)[nH]c2cc1N1CCCS1(=O)=O` [Example 4-2-118, [5-amino-1-[6-(3-chlorophenoxy)-4-methylpyridin-3-yl]pyrazol-4-yl]-[6-(1,1-dioxo-1,2-thiazolidin-2-yl)-5-methyl-1H-indol-2-yl]methanone], the IC50 on human Yes1 enzyme (setting [1]) amounted to 5.7 nM; at human Lck enzyme (setting [1]), 35 nM; on human Src enzyme (setting [1]), 110 nM.

Take `Cc1cc2cc(C(=O)c3cnn(-c4cnc(Oc5ccccc5F)cc4C)c3N)[nH]c2cc1NS(=O)(=O)c1cc(C#N)cc(C(F)(F)F)c1` [Example 5-1-499, N-[2-[5-amino-1-[6-(2-fluorophenoxy)-4-methylpyridin-3-yl]pyrazole-4-carbonyl]-5-methyl-1H-indol-6-yl]-3-cyano-5-(trifluoromethyl)benzenesulfonamide]: the IC50 was found to be 16 nM at human Yes1 enzyme (setting [1]), 550 nM on human Lck enzyme (setting [1]) and 1800 nM at human Src enzyme (setting [1]).

Regarding `Cc1cc(Oc2c(F)cccc2F)ncc1-n1ncc(C(=O)c2cc3cc(F)c(N4CCN(S(C)(=O)=O)CC4)cc3[nH]2)c1N` [Example 5-1-099], the IC50 turned out to be 2.1 nM at human Yes1 enzyme, 2.2 nM on human Lck enzyme and 11 nM at human Src enzyme.

For `Cc1cc(Oc2ccccc2F)ncc1-n1ncc(C(=O)c2cc3cc(C4CC4)c(NS(=O)(=O)C4CCOCC4)cc3[nH]2)c1N` [Example 5-1-396, N-[2-[5-amino-1-[6-(2-fluorophenoxy)-4-methylpyridin-3-yl]pyrazole-4-carbonyl]-5-cyclopropyl-1H-indol-6-yl]oxane-4-sulfonamide], the figures for the IC50 on human Yes1 enzyme, on human Lck enzyme and on human Src enzyme were 3.6 nM, 68 nM and 230 nM, respectively.

Values taken from US10479780B2, “Aminopyrazole derivatives” (Chugai Seiyaku Kabushiki Kaisha, priority 2015, dated 2019).
